Measured values published in US20200045969A1, “Fungicidal Composition and Fungicide for Controlling Asparagus Stem Blight” (Institute of Plant Protection, Jiangxi Academy of …, priority 2018, published 2020).

Test system: Phomopsis asparagi (Sacc.)
Test: laboratory toxicity, mycelium growth rate method
Assay type: cell-based
Details: for ATI (actually-determined toxicity index): (EC50 of standard agent/EC50 of agent to be tested)×100, difenoconazole = 100; for EC50: Phomopsis asparagi, pathogenic fungi of asparagus stem blight collected from the field
Protocol: According to Sun Yunpei method, the synergistic effect of the mixed drug was evaluated based on a cotoxicity coefficient (CTC). […] The subjects to be tested were pathogenic fungi of asparagus stem blight collected from the field. The determination method was conducted with reference to the mycelium growth rate method in “Technical regulation on agricultural construction project acceptance NY/T 1156.6-2006 of the People's Republic of China”.

SMILES	ATI (actually-determined toxicity index)	EC50 [mg/L]
CC1COC(Cn2cncn2)(c2ccc(Oc3ccc(Cl)cc3)cc2Cl)O1 (stereo not shown) [difenoconazole]	100.00	0.088
N=C(N)c1ccc(OCCCOc2ccc(C(=N)N)cc2)cc1 [propamidine]	166.04	0.053
